Patent US20230263816A1, “PHARMACEUTICAL COMPOSITIONS FOR DELIVERY OF REMDESIVIR BY INHALATION” (priority 2020, published 2023)
pEC50: −log10 of the molar value. Values after ≈ are worked out from the molar mass of the structure shown. Like-named read-outs stand apart in the source and are kept apart here.

How the values were obtained:
[1] = cited from earlier work
[2] = tested on: SAR-CoV-2; conditions: cited from earlier work
[3] = tested on: SARS-CoV-2; conditions: Pruijssers et al., 2020, cited from earlier work
[4] = Solubility in simulated lung fluid (SLF); format: physicochemical; conditions: for solubility in SLF: 25° C., 24 h
Experimental: The composition and preparation of simulated lung fluid (SLF) were adapted from Hassoun's study (Hassoun et al., 2018). SLF contained dipalmitoylphosphotidylcholine (DPPC), cholesterol, albumin, transferrin, ascorbic acid and Hank's balanced salt solution (HBSS). The SLF was prepared by two steps including a preparation of liposomal dispersion and freeze drying as described in Hassoun et al. (Hassoun et al., 2018). In the first step, a liposomal dispersion was prepared by mixing 2.12 mL of 25 mg/mL DPPC and 5 μL of 200 mg/mL cholesterol in chloroform. Then, the solution was dried using an evaporator until the dry film was obtained. The thin film of lipid was dispersed by adding 8 mL of 57 mg/mL bovine serum albumin in water, 1 mL of 15 mg/mL transferrin in water, and 88.5 μL of 10 mM ascorbate solution. The mixture was sonicated until it fully dispersed. The dispersion was adjusted to 10 mL by adding 1M HBSS). The dispersion was frozen at −20° C. for 6 h, and primary dried in the lyophilizer at −40° C. for 30 h and ramp to 25° C. for 12 h and finally secondary dried at 25° C. for 20 h. The lyophilized SLF was stored at 2-8° C. and reconstituted with purified water upon solubility and dissolution testing.
The excess amount of powder was added in SLF until precipitation occurred. Then the samples were shaken on the orbital shaker at 250 rpm and 25° C. for 24 h. The samples were collected and centrifuged at 13,000 rpm for 15 min. The supernatants were collected and then diluted with DMSO/acetonitrile (10/90). The samples were centrifuged again at 13,000 rpm for 15 min to separate proteins in SLF. The supernatants were collected and analyzed by HPLC.

[5] = rats; cited from earlier work

SMILES: N#C[C@@]1(c2ccc3c(N)ncnn23)O[C@H](CO)[C@@H](O)[C@H]1O [GS-441524]
- half-life ([1]; human, in vivo, iv): approximately 24.5 h
- EC50 ([2]; human airway epithelial (HAE), Agostini et al., 2018): 0.05243 µg/mL
- pEC50 ([2]; read-out: EC50): 6.74
- pEC50 ([3]; Calu3 2B4 cells, read-out: EC50): 6.21
- EC50 ([3]; Calu-3 2B4 cells): 0.1806 µg/mL

SMILES: CCC(CC)COC(=O)[C@H](C)N[P@](=O)(OC[C@H]1O[C@@](C#N)(c2ccc3c(N)ncnn23)[C@H](O)[C@@H]1O)Oc1ccccc1 [amorphous remdesivir, remdesivir]
- increase in solubility compared to crystalline neat remdesivir [4]: 20 fold
- solubility of amorphous versus crystalline remdesivir [4]: about 20 times
- solubility in SLF [4]: 590 ± 10 µg/mL (≈ 979 µM)

SMILES: CCC(CC)COC(=O)[C@H](C)N[P@](=O)(OC[C@H]1O[C@@](C#N)(c2ccc3c(N)ncnn23)[C@H](O)[C@@H]1O)Oc1ccccc1 [crystalline remdesivir, remdesivir]
- solubility in SLF [4]: 30 ± 1 µg/mL (≈ 49.8 µM)

SMILES: CCC(CC)COC(=O)[C@H](C)N[P@](=O)(OC[C@H]1O[C@@](C#N)(c2ccc3c(N)ncnn23)[C@H](O)[C@@H]1O)Oc1ccccc1 [remdesivir]
- half-life ([1]; humans, multiple IV administrations once a day): about 1 h
- half-life of remdesivir in plasma [5]: less than 0.9 min
